In patent US20150133390A1, “Identification of New Therapeutic Uses for Known Therapeutic Agents” (The Board of Trustees of the Leland Stanford Junior …, priority 2012, published 2015):
Entries after “also recorded” stand apart in the source; their conditions may differ.

Columns and labels:
INPP5D = details: van Leuven et al., 2010; cited from earlier work
[1] = test system: FVB donor hearts implanted into C57BL/6 WT mice (cardiac allograft); test: Graft survival in murine heterotopic cardiac transplant model of acute rejection; assay type: in vivo, mouse; details: for allograft survival compared to untreated AR / Median survival: FVB-to-C57BL/6 cardiac transplant; for allograft survival compared to untreated AR: 6 pairs per group; for Median survival: atorvastatin 75 and dasatinib 25 mg/kg/day oral gavage, cyclosporine 20 mg/kg/day i.p., followed to POD 30, untreated AR 10 days
Procedure: (§1) FVB donor hearts were implanted into the abdomen of C57BL/6 WT mice representing a complete MHC mismatch, as described previously. […] Animal activity, body weight and graft viability (abdominal palpation) were assessed daily.
(§2) Before oral gavages of Atorvastatin and Dasatinib, aliquots were mixed thoroughly. Unused formulations were discarded. Treatment started the day prior to transplantation and lasted until the day before sacrifice at post operation day 7 by exsanguination. Grafts were harvested and divided into three equal parts for downstream analyses.
Graft viability (abdominal palpation) were assessed daily for these animals until post operation day 30.

[2] = test system: graft infiltrating cells in cardiac allograft; test: Graft histology / immunohistochemistry of infiltrating cells at POD 7; assay type: in vivo, mouse; details: for number of infiltrating cells (immunohistochemistry): POD 7, compared to untreated AR
Procedure: as §1, §2
One third of the explanted allograft heart (POD7) was immediately fixed in […] buffered formalin, embedded in paraffin and subsequently stained with hematoxylin and eosin for histological assessment of tissue according to standard protocols. Pictures of the graft tissue were taken at 10× magnification using a Nikon E600 light microscope (Nikon Instruments Inc., Melville, N.Y.) and Spot V4.6 imaging software (Spot Imaging, Sterling Heights, Mich.).

[3] = test system: infiltrating cell subsets in cardiac allografts; test: Flow cytometry count of infiltrating cell subsets in cardiac allografts; assay type: in vivo, mouse; details: for number of infiltrating B220+ B cells compared to cyclosporine: POD 7, compared to cyclosporine group; for number of CD45+ infiltrating cells / number of infiltrating B220+ B cells / number of infiltrating CD4+ T cells / number of infiltrating CD8+ T cells / number of infiltrating CD11c+ dendritic cells / number of infiltrating F4/80+ macrophages / number of infiltrating NK1.1+ natural killer cells: POD 7, compared to untreated AR
Procedure: as §1, §2
Fluorescein isothiocyanate (FITC), phycoerythin (PE), or allophycocyanin-conjugated mAbs specific for mouse CD4 (GK1.5), CD8a (53-6.7), F4/80 (BM8), B220 (RA3-6B2), Gr1 (RB6-8C5), CD11c (N418), NK1.1 (PK136), CD45 (30-F11), and their isotype controls were purchased from BD Biosciences (San Jose, Calif.), eBioscience (San Diego, Calif.), or BioLegend (San Diego, Calif.). Immediately after graft explantation at day 7 post transplantation, one third of the cardiac allograft was homogenized in RPMI 1640 media with 2 mg/mL Collagenase D (Worthington Bio) and 10% FCS for 2 h at RT. Cells were first incubated with normal hamster serum, normal mouse serum (Jackson ImmunoResearch), and 5 μg/ml anti-CD16/32 mAb (2.4G2; BD Bioscience), then stained with FITC-, PE-, and APC-conjugated mAbs for 30 min at 4° C. To exclude the dead cells, 7-Amino-Actinomycin D (BD Bioscience) was added and incubated for 10 minutes before analysis. Expression of markers was determined by FACS Calibur (BD Bioscience) and FlowJo software (Tree Star).

CRM genes = test: Transcriptional analysis of mouse heart allografts (microarray with IPA pathway analysis, Q-PCR of CRM genes); assay type: in vivo; details: treatment group against untreated AR group
Procedure: We performed functional pathway analysis using Pathway-Express (PE). We used meta effect-size as fold change in PE to identify significant pathways. We used FDR<0.1 as a threshold for identifying significant pathways. We performed network analysis using IPA with option to only include “direct relationship” in order to avoid spurious connections due to “indirect relations”.
QRT-PCR for the CIRM module genes in mouse allografts was performed using a high-throughput RT-PCR instrument (BioMark; Fluidigm, San Francisco, Calif.). […] Data was analyzed using the BioMark RT-PCR Analysis Software Version 2.0. Using the delta Ct method, gene expression in each sample was calculated relative to the expression in a universal RNA sample (human universal RNA, Stratagene, CA). […]
For whole mouse genome expression analysis, Agilent Whole Mouse Genome 4×44K 60mer oligonucleotide arrays (G2519F, Agilent Technologies, Palo Alto, Calif.) were used. […] After purification, using the RNeasy mini kit (Qiagen), cRNA yield and Cy incorporation efficiency (specific activity) into the cRNA were determined using a NanoDrop Spectrophotometer (NanoDrop Technologies). cRNAs showing a yield >825 ng and a specific activity of 8-20 pmol/μg were selected for further processing. […]

Structure (SMILES)	reduction of expression of INPP5D (INPP5D)	allograft survival compared to untreated AR [1]	Median survival [1] [days]	number of infiltrating cells (immunohistochemistry) [2]	number of infiltrating B220+ B cells compared to cyclosporine [3]	number of CD45+ infiltrating cells [3]	number of infiltrating B220+ B cells [3]	number of infiltrating CD4+ T cells [3]	number of infiltrating CD8+ T cells [3]	number of infiltrating CD11c+ dendritic cells [3]	number of infiltrating F4/80+ macrophages [3]	number of infiltrating NK1.1+ natural killer cells [3]	pathways affected (IPA pathway analysis of down-regulated genes) (CRM genes)	hazard ratio for graft survival ([1]; Cox-proportional hazard analysis, treated compared to untreated AR)	number of infiltrating cells (immunohistochemistry) relative to cyclosporine ([2]; POD 7, compared to treatment with cyclosporine (p>0.05))
COc1c(C)c2c(c(O)c1C/C=C(\C)CCC(=O)OCCN1CCOCC1)C(=O)OC2 [Mycophenolate mofetil]	more than 2 fold														
CC(C)c1c(C(=O)Nc2ccccc2)c(-c2ccccc2)c(-c2ccc(F)cc2)n1CC[C@@H](O)C[C@@H](O)CC(=O)O [atorvastatin]		significantly extended allograft survival	17	significantly reduced; also recorded: fewer infiltrating cells	reduced	significantly reduced	significantly reduced	reduced	reduced	significantly reduced	significantly reduced	significantly reduced	monocyte- and macrophage-related pathways		
Cc1nc(Nc2ncc(C(=O)Nc3c(C)cccc3Cl)s2)cc(N2CCN(CCO)CC2)n1 [dasatinib]		significantly extended allograft survival	24.5	significantly reduced; also recorded: fewer infiltrating cells	reduced	significantly reduced	significantly reduced	reduced	reduced	significantly reduced	significantly reduced	significantly reduced	cell cycle-related pathways	66.26	equivalent
